Source: US8058475B2, “Substituted cyclohexylmethyl compounds” (Gruenenthal GmbH, priority 2005, dated 2011)
Counter-ions that a name gives are not always drawn. Like-named read-outs stand apart in the source and are kept apart here.

Key:
[1] = target: T1, Noradrenaline (NA) reuptake (Rattus norvegicus, UniProt Q63380); experiment: Noradrenaline (NA) reuptake inhibition in rat brain synaptosomes (hypothalamus, P2 fraction); assay type: biochemical
T1 construct: synaptosomes are freshly isolated from areas of rat brain; from tissue; host or cells: rat hypothalamus synaptosomes (P2 fraction)
T1 sequence (Q63380 1-617): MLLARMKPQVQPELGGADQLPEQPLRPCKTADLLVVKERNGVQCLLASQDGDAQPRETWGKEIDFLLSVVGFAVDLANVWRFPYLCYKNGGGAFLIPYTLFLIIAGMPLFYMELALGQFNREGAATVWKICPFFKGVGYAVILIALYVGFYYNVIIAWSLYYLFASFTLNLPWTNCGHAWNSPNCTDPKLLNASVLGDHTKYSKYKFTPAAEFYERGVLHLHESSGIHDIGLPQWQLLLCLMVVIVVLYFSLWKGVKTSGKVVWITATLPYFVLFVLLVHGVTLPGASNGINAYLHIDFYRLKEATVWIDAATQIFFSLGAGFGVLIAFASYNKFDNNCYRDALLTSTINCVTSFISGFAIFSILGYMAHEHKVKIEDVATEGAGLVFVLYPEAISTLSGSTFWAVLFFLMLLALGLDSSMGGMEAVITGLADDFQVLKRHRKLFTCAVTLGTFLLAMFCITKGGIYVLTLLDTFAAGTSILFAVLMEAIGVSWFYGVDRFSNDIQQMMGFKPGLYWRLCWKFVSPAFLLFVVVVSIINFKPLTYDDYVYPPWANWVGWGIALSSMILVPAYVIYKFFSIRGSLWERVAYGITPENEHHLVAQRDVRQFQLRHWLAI
Method in brief: (§1)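 Freshly isolated rat brain synaptosomes (P2 fraction, Gray–Whittaker method) used for uptake; for NA uptake the particles came from hypothalamus of male rats.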

Serotonin (5HT) reuptake = target: T2, Serotonin (5HT) reuptake (Rattus norvegicus, UniProt P31652); experiment: Serotonin (5HT) reuptake inhibition in rat brain synaptosomes (P2 fraction); assay type: biochemical; conditions: for inhibition at 10 µM: read-out: Serotonin reuptake, % inhibition [10 μM]
T2 construct: synaptosomes are freshly isolated from areas of rat brain; from tissue; host or cells: rat brain synaptosomes (P2 fraction)
T2 sequence (P31652 whole entry): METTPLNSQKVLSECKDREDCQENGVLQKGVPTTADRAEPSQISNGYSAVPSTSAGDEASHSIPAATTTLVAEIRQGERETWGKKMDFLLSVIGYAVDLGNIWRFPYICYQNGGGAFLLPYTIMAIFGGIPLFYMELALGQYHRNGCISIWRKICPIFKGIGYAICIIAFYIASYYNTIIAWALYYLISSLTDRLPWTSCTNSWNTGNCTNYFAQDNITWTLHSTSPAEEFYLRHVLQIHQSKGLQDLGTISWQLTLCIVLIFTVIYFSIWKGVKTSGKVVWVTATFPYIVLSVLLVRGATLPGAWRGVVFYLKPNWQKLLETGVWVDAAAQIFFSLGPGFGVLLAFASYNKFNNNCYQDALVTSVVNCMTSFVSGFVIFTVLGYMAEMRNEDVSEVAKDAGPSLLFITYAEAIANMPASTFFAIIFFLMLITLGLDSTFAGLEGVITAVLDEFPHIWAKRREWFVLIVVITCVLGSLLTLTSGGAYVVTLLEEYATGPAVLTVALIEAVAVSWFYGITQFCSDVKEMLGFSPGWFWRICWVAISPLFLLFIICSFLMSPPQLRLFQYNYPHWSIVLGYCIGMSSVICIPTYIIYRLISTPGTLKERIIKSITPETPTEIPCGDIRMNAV
Method in brief: as §1

mouse = experiment: In vivo studies of analgesia: tail-flick test in the mouse; conditions: iv, read-out: Activity % MPE; for % maximum possible antinociceptive effect at 10 mg/kg: dose 10 mg/kg (i.v.); for % maximum possible antinociceptive effect at 21.5 mg/kg: dose 21.5 mg/kg (i.v.)
Excerpt: In vivo Studies of Analgesia: Tail-flick Test in the Mouse
The mice were each placed individually into a test cage and the base of the tail was exposed to the focused heat ray of an electric lamp (tail-flick type 50/08/1.bc, Labtec, Dr. Hess). The intensity of the lamp was adjusted so that the time from switching on of the lamp to the sudden twitching away of the tail (latency of pain) in untreated mice was from 3 to 5 seconds. Before administration of the solutions comprising the compound according to the invention, or of the particular comparison solutions, the mice were pre-tested twice in the course of five minutes and the mean of these measurements was calculated as the pre-test mean.
The solutions of the compound of the general formula I according to the invention and the comparison solutions were then administered intravenously.
Pain measurement was carried out in each case 10, 20, 40 and 60 minutes following the intravenous administration. The analgesic activity was determined as the increase in the latency of pain (% of the maximum possible antinociceptive effect) according to the following formula: [(T1−T0)/(T2−T0)]×100 where time T0 is the latency before administration, time T1 is the latency after administration of the active ingredient combination and time T2 is the maximum exposure time (12 seconds).
The in-depth study of analgesic activity was carried out in the tail-flick test in the mouse, as described above.

human μ-opiate receptor = human μ-opiate receptor (Homo sapiens, UniProt P35372); experiment: Affinity for the human μ-opiate receptor ([3H]-naloxone displacement, SPA, CHO-K1 membrane preparation); assay type: binding; conditions: for inhibition at 1 µM: read-out: μ-Opioid receptor, % inhibition [1 μM]; for Ki: read-out: μ-Opioid receptor, Ki
human μ-opiate receptor, sequence (P35372 whole entry): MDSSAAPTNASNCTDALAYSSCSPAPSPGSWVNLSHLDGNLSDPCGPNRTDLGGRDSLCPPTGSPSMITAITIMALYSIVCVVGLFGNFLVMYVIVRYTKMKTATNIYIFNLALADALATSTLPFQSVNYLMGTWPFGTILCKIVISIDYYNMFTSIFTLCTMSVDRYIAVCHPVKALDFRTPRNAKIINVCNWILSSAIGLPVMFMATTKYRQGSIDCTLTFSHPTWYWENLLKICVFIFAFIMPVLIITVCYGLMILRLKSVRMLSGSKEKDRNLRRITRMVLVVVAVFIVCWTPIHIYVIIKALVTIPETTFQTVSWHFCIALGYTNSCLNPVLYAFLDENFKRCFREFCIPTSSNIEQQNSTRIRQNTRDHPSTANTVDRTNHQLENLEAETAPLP

[2] = read-out: Na reuptake, % inhibition [10 μM]
[3] = read-out: NA reuptake, % inhibition [10 μM]
[4] = 1 μM test substance, inhibition of specific [3H]-naloxone binding

SMILES: CC(=O)N(CCCCc1ccccc1)C1CCC(C(c2ccccc2)N(C)C)CC1 (centres unmarked) [compound 98, N-(4-((dimethylamino)(phenyl)methyl)cyclohexyl)-N-(4-phenylbutyl)-acetamide hydrochloride]
- Ki [1]: 700 nM
- inhibition at 10 µM [1, 2]: 95%
- Ki (Serotonin (5HT) reuptake): 630 nM
- inhibition at 10 µM (Serotonin (5HT) reuptake): 74%
- % maximum possible antinociceptive effect at 10 mg/kg (mouse): 100%
- inhibition at 1 µM (human μ-opiate receptor): 104%

SMILES: CC(Cc1c[nH]c2ccccc12)NC1CCC(C(c2ccccc2)N(C)C)CC1 (centres unmarked) [compound 88, N-(1-(1H-indol-3-yl)propan-2-yl)-4-((dimethylamino)(phenyl)methyl)-cyclohexanamine hydrochloride]
- inhibition at 10 µM [1, 3]: 84%
- inhibition at 10 µM (Serotonin (5HT) reuptake): 88%
- % maximum possible antinociceptive effect at 21.5 mg/kg (mouse): 90%
- inhibition at 1 µM (human μ-opiate receptor; [4]): 99%
- Ki (human μ-opiate receptor): 2.4 nM

SMILES: CN(C)C(c1ccccc1)[C@H]1CC[C@H](CCc2ccccc2)CC1 (relative stereo) [compound 146, trans-N,N-dimethyl(4-phenethylcyclohexyl)(phenyl)methanamine hydrochloride]
- Ki [1]: 600 nM
- inhibition at 10 µM [1, 3]: 94%
- Ki (Serotonin (5HT) reuptake): 150 nM
- inhibition at 10 µM (Serotonin (5HT) reuptake): 92%
- % maximum possible antinociceptive effect at 10 mg/kg (mouse): 21%
- inhibition at 1 µM (human μ-opiate receptor; [4]): 97%

SMILES: CN(C)C(c1ccccc1)C1CCC(NCc2ccc(F)cc2)CC1 (centres unmarked) [compound 91, 4-((dimethylamino)(phenyl)methyl)-N-(4-fluorobenzyl)cyclohexanamine hydrochloride]
- inhibition at 10 µM [1, 3]: 93%
- inhibition at 10 µM (Serotonin (5HT) reuptake): 76%
- % maximum possible antinociceptive effect at 21.5 mg/kg (mouse): 90%
- inhibition at 1 µM (human μ-opiate receptor; [4]): 90%
- Ki (human μ-opiate receptor): 8.1 nM

SMILES: CCC(CC)C(=O)N(c1ccccc1)C1CCC(C(c2ccccc2)N(C)C)CC1 (centres unmarked) [compound 105, N-(4-((dimethylamino)(phenyl)methyl)cyclohexyl)-2-ethyl-N-phenylbutanamide hydrochloride]
- inhibition at 10 µM [1, 2]: 88%
- inhibition at 10 µM (Serotonin (5HT) reuptake): 85%
- inhibition at 1 µM (human μ-opiate receptor): 100%
- Ki (human μ-opiate receptor): 20 nM

SMILES: CN(C)C(c1ccc(Cl)cc1)C1CCC(N)CC1 (centres unmarked) [compound 23, 4-[(4-chlorophenyl)-dimethylamino-methyl]-cyclohexylamine]
- inhibition at 10 µM [1, 3]: 97%
- inhibition at 10 µM (Serotonin (5HT) reuptake): 64%
- inhibition at 1 µM (human μ-opiate receptor; [4]): 58%

SMILES: CN(C)C(c1ccccc1)C1CCC(N(Cc2ccccc2)C(=O)c2ccccc2)CC1 (centres unmarked) [compound 104, N-benzyl-N-(4-((dimethylamino)(phenyl)methyl)cyclohexyl)benzamide hydrochloride]
- Ki [1]: 320 nM
- inhibition at 10 µM [1, 2]: 92%
- Ki (Serotonin (5HT) reuptake): 440 nM
- inhibition at 10 µM (Serotonin (5HT) reuptake): 90%
- inhibition at 1 µM (human μ-opiate receptor): 92%
- Ki (human μ-opiate receptor): 14 nM

SMILES: CN(C)C(c1ccccc1)C1CCC(CCO)CC1 (centres unmarked) [compound 125, 2-[4-(dimethylamino-phenyl-methyl)-cyclohexyl]-ethanol]
- inhibition at 10 µM [1, 3]: 86%
- inhibition at 10 µM (Serotonin (5HT) reuptake): 82%
- inhibition at 1 µM (human μ-opiate receptor; [4]): 62%

SMILES: COc1ccc(NC(=O)NC2CCC(C(c3ccccc3)N(C)C)CC2)cc1 (centres unmarked) [compound 82, 1-(4-((dimethylamino)(phenyl)methyl)cyclohexyl)-3-(4-methoxyphenyl)urea]
- Ki [1]: 120 nM
- inhibition at 10 µM [1, 3]: 98%
- Ki (Serotonin (5HT) reuptake): 110 nM
- inhibition at 10 µM (Serotonin (5HT) reuptake): 98%
- inhibition at 1 µM (human μ-opiate receptor; [4]): 92%
- Ki (human μ-opiate receptor): 190 nM

SMILES: CCOC(=O)C=CC1CCC(C(c2cccc(F)c2)N(C)C)CC1 (centres unmarked) [compound 138, 3-{4-[dimethylamino-(3-fluorophenyl)-methyl]-cyclohexyl}-acrylic acid ethyl ester]
- Ki [1]: 620 nM
- inhibition at 10 µM [1, 3]: 96%
- Ki (Serotonin (5HT) reuptake): 310 nM
- inhibition at 10 µM (Serotonin (5HT) reuptake): 84%
- inhibition at 1 µM (human μ-opiate receptor; [4]): 73%
- Ki (human μ-opiate receptor): 92 nM

SMILES: COc1ccc(NC2CCC(C(c3ccccc3)N(C)C)CC2)cc1 (centres unmarked) [compound 89, N-(4-((dimethylamino)(phenyl)methyl)cyclohexyl)-4-methoxybenzenamine hydrochloride]
- inhibition at 10 µM [1, 3]: 85%
- inhibition at 10 µM (Serotonin (5HT) reuptake): 73%
- inhibition at 1 µM (human μ-opiate receptor; [4]): 95%
- Ki (human μ-opiate receptor): 59 nM

SMILES: CN(C)C(c1ccc(Cl)cc1)C1CCC(O)CC1 (centres unmarked) [compound 114, 4-[(4-chlorophenyl)-dimethylamino-methyl]-cyclohexanol]
- inhibition at 10 µM [1, 3]: 93%
- inhibition at 10 µM (Serotonin (5HT) reuptake): 64%
- inhibition at 1 µM (human μ-opiate receptor; [4]): 43%

SMILES: CN(C)C(c1ccccc1)C1CCC(CC=O)CC1 (centres unmarked) [compound 46, [4-(Dimethylamino-phenyl-methyl)-cyclohexyl]-acetaldehyde]
- inhibition at 10 µM [1, 3]: 95%
- inhibition at 10 µM (Serotonin (5HT) reuptake): 92%
- inhibition at 1 µM (human μ-opiate receptor; [4]): 75%

SMILES: CN(C)C(c1ccc(Cl)cc1)C1CCC(CCN)CC1 (centres unmarked) [compound 66, 2-{4-[dimethylamino-(4-chlorophenyl)-methyl]-cyclohexyl}-ethylamine]
- inhibition at 10 µM [1, 3]: 96%
- inhibition at 10 µM (Serotonin (5HT) reuptake): 96%
- inhibition at 1 µM (human μ-opiate receptor; [4]): 62%

SMILES: CCOC(=O)CC1CCC(C(c2cccc(F)c2)N(C)C)CC1 (centres unmarked) [compound 130, {4-[dimethylamino-(3-fluorophenyl)-methyl]-cyclohexyl}-acetic acid ethyl ester]
- inhibition at 10 µM [1, 3]: 82%
- Ki (Serotonin (5HT) reuptake): 16 nM
- inhibition at 10 µM (Serotonin (5HT) reuptake): 93%
- inhibition at 1 µM (human μ-opiate receptor; [4]): 82%
- Ki (human μ-opiate receptor): 230 nM

SMILES: CCOC(=O)CC1CCC(C(c2ccccc2)N(C)C)CC1 (centres unmarked) [compound 124, [4-(dimethylamino-phenyl-methyl)-cyclohexyl]-acetic acid ethyl ester]
- inhibition at 10 µM [1, 3]: 76%
- Ki (Serotonin (5HT) reuptake): 97 nM
- inhibition at 10 µM (Serotonin (5HT) reuptake): 85%
- inhibition at 1 µM (human μ-opiate receptor; [4]): 79%
- Ki (human μ-opiate receptor): 79 nM

SMILES: CCC(CC)C(=O)N(Cc1ccccc1)C1CCC(C(c2ccccc2)N(C)C)CC1 (centres unmarked) [compound 101, N-benzyl-N-(4-((dimethylamino)(phenyl)methyl)cyclohexyl)-2-ethylbutanamide hydrochloride]
- Ki [1]: 670 nM
- inhibition at 10 µM [1, 2]: 86%
- Ki (Serotonin (5HT) reuptake): 880 nM
- inhibition at 10 µM (Serotonin (5HT) reuptake): 81%
- inhibition at 1 µM (human μ-opiate receptor): 101%
- Ki (human μ-opiate receptor): 2.3 nM

SMILES: CCOC(=O)CCC1CCC(C(c2ccccc2)N(C)C)CC1 (centres unmarked) [compound 133, 3-[4-(dimethylamino-phenyl-methyl)-cyclohexyl]-propionic acid ethyl ester]
- inhibition at 10 µM [1, 3]: 87%
- Ki (Serotonin (5HT) reuptake): 99 nM
- inhibition at 10 µM (Serotonin (5HT) reuptake): 89%
- inhibition at 1 µM (human μ-opiate receptor; [4]): 81%
- Ki (human μ-opiate receptor): 96 nM

SMILES: CN(C)C(c1cccc(F)c1)C1CCC(C=O)CC1 (centres unmarked) [compound 34, 4-[Dimethylamino-(3-fluorophenyl)-methyl]-cyclohexane-carbaldehyde]
- inhibition at 10 µM [1, 3]: 87%
- inhibition at 10 µM (Serotonin (5HT) reuptake): 87%
- inhibition at 1 µM (human μ-opiate receptor; [4]): 34%

SMILES: CN(C)C(c1ccccc1)C1CCC(CN)CC1 (centres unmarked) [compound 30, [(4-aminomethyl-cyclohexyl)-phenyl-methyl]-dimethylamine]
- inhibition at 10 µM [1, 3]: 89%
- inhibition at 10 µM (Serotonin (5HT) reuptake): 89%
- inhibition at 1 µM (human μ-opiate receptor; [4]): 94%
- Ki (human μ-opiate receptor): 210 nM

SMILES: CN(C)C(c1ccc(Cl)cc1)C1CCC(CO)CC1 (centres unmarked) [compound 120, {4-[(4-chlorophenyl)-dimethylamino-methyl]-cyclohexyl}-methanol]
- inhibition at 10 µM [1, 3]: 93%
- inhibition at 10 µM (Serotonin (5HT) reuptake): 79%
- inhibition at 1 µM (human μ-opiate receptor; [4]): 51%

SMILES: CN(C)C(c1ccc(F)cc1)C1CCC(CCCO)CC1 (centres unmarked) [compound 137, 3-{4-[dimethylamino-(4-fluorophenyl)-methyl]-cyclohexyl}-propan-1-ol]
- inhibition at 10 µM [1, 3]: 93%
- inhibition at 10 µM (Serotonin (5HT) reuptake): 89%
- inhibition at 1 µM (human μ-opiate receptor; [4]): 13%

SMILES: CN(C)C(c1ccccc1)C1CCC(NS(=O)(=O)c2ccccc2)CC1 (centres unmarked) [compound 110, N-(4-((dimethylamino)(phenyl)methyl)cyclohexyl)benzenesulfonamide hydrochloride]
- inhibition at 10 µM [1, 3]: 62%
- inhibition at 10 µM (Serotonin (5HT) reuptake): 86%
- inhibition at 1 µM (human μ-opiate receptor; 1 μM, sulfonamides (Table 17)): 93%
- Ki (human μ-opiate receptor; sulfonamides (Table 17)): 25 nM

SMILES: CN(C)C(c1ccccc1)C1CCC(NC(=O)Nc2cccc3ccccc23)CC1 (centres unmarked) [compound 73, 1-(4-((dimethylamino)(phenyl)methyl)cyclohexyl)-3-(naphthalen-1-yl)urea]
- Ki [1]: 180 nM
- inhibition at 10 µM [1, 3]: 94%
- Ki (Serotonin (5HT) reuptake): 61 nM
- inhibition at 10 µM (Serotonin (5HT) reuptake): 90%
- inhibition at 1 µM (human μ-opiate receptor; [4]): 96%
- Ki (human μ-opiate receptor): 46 nM

SMILES: CN(C)C(CCc1ccccc1)C1CCC(CO)CC1 (centres unmarked) [compound 122, [4-(1-dimethylamino-3-phenyl-propyl)-cyclohexyl]-methanol]
- inhibition at 10 µM [1, 3]: 97%
- inhibition at 10 µM (Serotonin (5HT) reuptake): 77%
- inhibition at 1 µM (human μ-opiate receptor; [4]): 32%

SMILES: CCOC(=O)CCC1CCC(C(c2ccc(F)cc2)N(C)C)CC1 (centres unmarked) [compound 136, 3-{4-[dimethylamino-(4-fluorophenyl)-methyl]-cyclohexyl}-propionic acid ethyl ester]
- Ki [1]: 580 nM
- inhibition at 10 µM [1, 3]: 89%
- Ki (Serotonin (5HT) reuptake): 83 nM
- inhibition at 10 µM (Serotonin (5HT) reuptake): 86%
- inhibition at 1 µM (human μ-opiate receptor; [4]): 73%
- Ki (human μ-opiate receptor): 230 nM
